For 9 cell lines, relative viability results are on record in the supplement of paper PMC10307832.

Assay in all cases: relative viability (nuclei count vs DMSO), 5 days (fraction); higher = more cells survive
Compound in the assay “Sulindac + Bortezomib”: CC1=C(CC(=O)O)c2cc(F)ccc2/C1=C\c1ccc([S+](C)[O-])cc1 [Sulindac] + CC(C)C[C@H](NC(=O)[C@H](Cc1ccccc1)NC(=O)c1cnccn1)B(O)O [Bortezomib] (partner 0.002 µM)
In outline: (§1)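 Relative viability equals treated-well nuclei counts divided by vehicle-well nuclei counts. Counts came from 4× images of lung cancer cell lines grown in 1536-well plates for 5 days after pin-tool dosing on the day after seeding. Dosing used one drug alone or a fixed anchor-drug dose plus five library-drug doses (not always all listed) in √10 steps, and values are medians of duplicate plates.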

Compound in the assay “Sulindac + Foretinib”: CC1=C(CC(=O)O)c2cc(F)ccc2/C1=C\c1ccc([S+](C)[O-])cc1 [Sulindac] + COc1cc2c(Oc3ccc(NC(=O)C4(C(=O)Nc5ccc(F)cc5)CC4)cc3F)ccnc2cc1OCCCN1CCOCC1 [Foretinib] (partner 0.25 µM)
In outline:
as §1

Compound in assay [1]: CN[C@@H]1C[C@H]2O[C@@](C)([C@@H]1OC)n1c3ccccc3c3c4c(c5c6ccccc6n2c5c31)C(=O)NC4 [Staurosporine] + Cc1cc(Nc2cc(N3CCN(C)CC3)nc(Sc3ccc(NC(=O)C4CC4)cc3)n2)n[nH]1 [Tozasertib] (partner 0.1 µM)
In outline: as §1

Compound in assay [2]: O=c1[nH]cc(F)c(=O)[nH]1 [5-Fluorouracil] + O=C(CCCCCCC(=O)Nc1ccccc1)NO [Vorinostat] (partner 1 µM)
In outline: as §1

Consider EBC-1, for which the relative viability with Sulindac + Bortezomib (first compound 0.08 µM) amounted to 0.585; with Sulindac + Bortezomib (first compound 0.253 µM), 0.557; with Sulindac + Bortezomib (first compound 0.8 µM), 0.56; with Sulindac + Bortezomib (first compound 2.53 µM), 0.474; in the assay with Sulindac + Bortezomib (first compound 8 µM), 0.663; with Sulindac + Foretinib (first compound 0.08 µM), 0.0937. Further, the values for the relative viability with Sulindac + Foretinib (first compound 0.253 µM), with Sulindac + Foretinib (first compound 2.53 µM) and in the assay with Sulindac + Foretinib (first compound 8 µM) were 0.0935, 0.107 and 0.105, respectively.

For EKVX, the relative viability with Sulindac + Bortezomib (first compound 0.08 µM) came out at 1; in the assay with Sulindac + Bortezomib (first compound 0.253 µM) it was 0.999; with Sulindac + Bortezomib (first compound 0.8 µM), 0.859; with Sulindac + Bortezomib (first compound 2.53 µM), 1.04; in the assay with Sulindac + Bortezomib (first compound 8 µM) it was 1.05; with Sulindac + Foretinib (first compound 0.08 µM) it was 0.666. For the same cell line, the relative viability in the assay with Sulindac + Foretinib (first compound 0.253 µM) came to 0.942; with Sulindac + Foretinib (first compound 0.8 µM) it was 0.421; in the assay with Sulindac + Foretinib (first compound 2.53 µM), 0.683; with Sulindac + Foretinib (first compound 8 µM) it was 0.995; in assay [1] (first compound 0.005 µM) it was 0.346; in assay [1] (first compound 0.01581 µM) it was 0.213. Moreover, the relative viability in assay [1] (first compound 0.05 µM) came out at 0.17; in assay [1] (first compound 0.1581 µM), 0.165; in assay [1] (first compound 0.5 µM) it was 0.134; in assay [2] (first compound 0.02 µM), 0.69; in assay [2] (first compound 0.2 µM), 0.328.

Consider EMC-BAC-2, for which the relative viability in the assay with Sulindac + Bortezomib (first compound 0.08 µM) was 1.14; with Sulindac + Bortezomib (first compound 0.253 µM), 1.1; in the assay with Sulindac + Bortezomib (first compound 0.8 µM), 0.824; with Sulindac + Bortezomib (first compound 2.53 µM) it was 1.06; with Sulindac + Bortezomib (first compound 8 µM) it was 1.08; in the assay with Sulindac + Foretinib (first compound 0.08 µM) it was 0.953. Further, the relative viability with Sulindac + Foretinib (first compound 0.253 µM) is 1.05; with Sulindac + Foretinib (first compound 0.8 µM) it was 0.892; with Sulindac + Foretinib (first compound 2.53 µM), 1.02; with Sulindac + Foretinib (first compound 8 µM), 1.08; in assay [1] (first compound 0.005 µM), 0.181; in assay [1] (first compound 0.01581 µM), 0.138. The relative viability was determined as 0.19 in assay [1] (first compound 0.05 µM); 0.192 in assay [1] (first compound 0.1581 µM); 0.181 in assay [1] (first compound 0.5 µM); 0.448 in assay [2] (first compound 0.02 µM); 0.566 in assay [2] (first compound 0.2 µM); 0.463 in assay [2] (first compound 0.6325 µM). Moreover, in assay [2] (first compound 2 µM), the relative viability is 0.226.

With EPLC-272H, the relative viability was determined as 1.05 with Sulindac + Bortezomib (first compound 0.08 µM); 0.603 with Sulindac + Bortezomib (first compound 0.8 µM); 1.12 with Sulindac + Bortezomib (first compound 2.53 µM); 0.813 with Sulindac + Bortezomib (first compound 8 µM); 0.669 with Sulindac + Foretinib (first compound 0.08 µM); 0.763 with Sulindac + Foretinib (first compound 0.253 µM). Further, the relative viability with Sulindac + Foretinib (first compound 2.53 µM) amounted to 0.711; with Sulindac + Foretinib (first compound 8 µM), 0.745; in assay [1] (first compound 0.005 µM) it was 0.381; in assay [1] (first compound 0.01581 µM), 0.17; in assay [1] (first compound 0.05 µM), 0.147; in assay [1] (first compound 0.1581 µM), 0.104. Also, the relative viability turned out to be 0.108 in assay [1] (first compound 0.5 µM); 0.621 in assay [2] (first compound 0.02 µM); 0.401 in assay [2] (first compound 0.2 µM); 0.279 in assay [2] (first compound 0.6325 µM); 0.241 in assay [2] (first compound 2 µM).

For H3255, the relative viability was 0.714 with Sulindac + Bortezomib (first compound 0.08 µM); 0.684 with Sulindac + Bortezomib (first compound 0.253 µM); 0.735 with Sulindac + Bortezomib (first compound 0.8 µM); 0.891 in the assay with Sulindac + Bortezomib (first compound 2.53 µM); 0.916 in the assay with Sulindac + Bortezomib (first compound 8 µM); 0.962 with Sulindac + Foretinib (first compound 0.08 µM). In addition, the relative viability came out at 0.853 with Sulindac + Foretinib (first compound 0.253 µM); 0.678 with Sulindac + Foretinib (first compound 0.8 µM); 0.879 in the assay with Sulindac + Foretinib (first compound 2.53 µM); 0.827 with Sulindac + Foretinib (first compound 8 µM); 0.504 in assay [1] (first compound 0.005 µM); 0.337 in assay [1] (first compound 0.01581 µM). For the same cell line, the relative viability is 0.203 in assay [1] (first compound 0.05 µM); 0.239 in assay [1] (first compound 0.1581 µM); 0.145 in assay [1] (first compound 0.5 µM); 0.798 in assay [2] (first compound 0.02 µM); 0.77 in assay [2] (first compound 0.2 µM); 0.734 in assay [2] (first compound 0.6325 µM). The relative viability in assay [2] (first compound 2 µM) is 0.537.

HARA: the relative viability came to 1.2 with Sulindac + Bortezomib (first compound 0.08 µM); 1.09 with Sulindac + Bortezomib (first compound 0.253 µM); 1.14 in the assay with Sulindac + Bortezomib (first compound 2.53 µM); 1.44 with Sulindac + Bortezomib (first compound 8 µM); 1.28 with Sulindac + Foretinib (first compound 0.08 µM); 1.05 with Sulindac + Foretinib (first compound 0.253 µM). In addition, the relative viability with Sulindac + Foretinib (first compound 0.8 µM) was found to be 0.991; in the assay with Sulindac + Foretinib (first compound 2.53 µM), 0.819; with Sulindac + Foretinib (first compound 8 µM), 1.1; in assay [1] (first compound 0.005 µM), 0.102; in assay [1] (first compound 0.05 µM) it was 0.0638; in assay [1] (first compound 0.1581 µM), 0.0719. Moreover, the relative viability amounted to 0.0716 in assay [1] (first compound 0.5 µM); 0.517 in assay [2] (first compound 0.02 µM); 0.39 in assay [2] (first compound 0.2 µM); 0.281 in assay [2] (first compound 0.6325 µM); 0.16 in assay [2] (first compound 2 µM).

Regarding HCC-15, the relative viability is 1.34 in the assay with Sulindac + Bortezomib (first compound 0.08 µM); 1.08 in the assay with Sulindac + Bortezomib (first compound 0.253 µM); 0.676 with Sulindac + Bortezomib (first compound 0.8 µM); 1.07 in the assay with Sulindac + Bortezomib (first compound 2.53 µM); 1.07 in the assay with Sulindac + Bortezomib (first compound 8 µM); 1.19 with Sulindac + Foretinib (first compound 0.08 µM). Besides, the relative viability with Sulindac + Foretinib (first compound 0.253 µM) came out at 1.02; with Sulindac + Foretinib (first compound 0.8 µM), 0.905; in the assay with Sulindac + Foretinib (first compound 2.53 µM), 0.978; with Sulindac + Foretinib (first compound 8 µM), 1.33; in assay [1] (first compound 0.005 µM), 0.379; in assay [1] (first compound 0.05 µM) it was 0.166. Moreover, the relative viability in assay [1] (first compound 0.1581 µM) stood at 0.0982; in assay [1] (first compound 0.5 µM) it was 0.0697; in assay [2] (first compound 0.02 µM) it was 0.952; in assay [2] (first compound 0.2 µM), 0.912; in assay [2] (first compound 0.6325 µM), 0.554; in assay [2] (first compound 2 µM) it was 0.327.

HCC-44: the relative viability with Sulindac + Bortezomib (first compound 0.08 µM) came to 0.89; with Sulindac + Bortezomib (first compound 0.253 µM), 0.882; in the assay with Sulindac + Bortezomib (first compound 0.8 µM) it was 0.853; in the assay with Sulindac + Bortezomib (first compound 2.53 µM), 0.904; with Sulindac + Bortezomib (first compound 8 µM) it was 0.966; in assay [1] (first compound 0.005 µM), 0.426. The relative viability stood at 0.136 in assay [1] (first compound 0.01581 µM); 0.168 in assay [1] (first compound 0.05 µM); 0.135 in assay [1] (first compound 0.1581 µM); 0.112 in assay [1] (first compound 0.5 µM); 1.09 in assay [2] (first compound 0.02 µM); 1.07 in assay [2] (first compound 0.2 µM). Also, the relative viability in assay [2] (first compound 0.6325 µM) is 0.824; in assay [2] (first compound 2 µM), 0.544.

Turning to HCC-78, the relative viability with Sulindac + Bortezomib (first compound 0.08 µM) was 0.432; in the assay with Sulindac + Bortezomib (first compound 0.253 µM) it was 0.534; with Sulindac + Bortezomib (first compound 0.8 µM) it was 0.379; with Sulindac + Bortezomib (first compound 2.53 µM), 0.607; with Sulindac + Bortezomib (first compound 8 µM) it was 0.532; in the assay with Sulindac + Foretinib (first compound 0.08 µM) it was 0.512. The relative viability with Sulindac + Foretinib (first compound 0.253 µM) was 0.547; in the assay with Sulindac + Foretinib (first compound 0.8 µM), 0.585; with Sulindac + Foretinib (first compound 2.53 µM), 0.566; with Sulindac + Foretinib (first compound 8 µM), 0.556; in assay [1] (first compound 0.005 µM), 0.545; in assay [1] (first compound 0.01581 µM) it was 0.287. Further, the relative viability stood at 0.424 in assay [1] (first compound 0.05 µM); 0.429 in assay [1] (first compound 0.1581 µM); 0.258 in assay [1] (first compound 0.5 µM); 0.463 in assay [2] (first compound 0.02 µM); 0.426 in assay [2] (first compound 0.2 µM); 0.325 in assay [2] (first compound 0.6325 µM). For the same cell line, in assay [2] (first compound 2 µM), the relative viability came to 0.232.
